{"source": "patent US11104690B2", "about": "“Indazole derivatives useful as inhibitors of diacylglyceride O-acyltransferase 2” (Merck Sharp & Dohme Corp., priority 2016, dated 2021)", "data": [{"target": "Human DGAT2 (Homo sapiens (Human), UniProt Q96PD7)", "sequence (Q96PD7 whole entry)": "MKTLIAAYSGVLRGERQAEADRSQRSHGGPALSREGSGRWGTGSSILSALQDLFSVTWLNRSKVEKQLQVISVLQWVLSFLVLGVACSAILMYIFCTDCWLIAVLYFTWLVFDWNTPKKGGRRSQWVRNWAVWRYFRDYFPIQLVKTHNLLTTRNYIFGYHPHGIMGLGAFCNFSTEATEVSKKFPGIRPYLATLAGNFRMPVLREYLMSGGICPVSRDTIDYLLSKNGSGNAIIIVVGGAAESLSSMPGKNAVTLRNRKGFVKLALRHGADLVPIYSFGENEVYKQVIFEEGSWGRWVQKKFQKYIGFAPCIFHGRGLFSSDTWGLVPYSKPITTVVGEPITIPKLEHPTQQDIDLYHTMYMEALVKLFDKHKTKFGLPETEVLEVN", "experiment": "DGAT2 Enzymatic Activity Assay (triolein formation, LC/MS/MS)", "assay_type": "biochemical", "settings": "hDGAT2 Sf-9 membrane prep; 25 μM diolein, 10 μM oleoyl-CoA; room temperature", "procedure,_shortened": "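Membranes from Sf-9 cells infected with untagged hDGAT2 baculovirus, 10 ng/μL, at room temperature in 100 mM Tris.Cl pH 7.0, 20 mM MgCl2, 5% ethanol with 25 μM diolein and 10 μM oleoyl-CoA. Triolein quantified by LC/MS/MS against spiked internal standard; IC50 from 4-parameter sigmoidal fit.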", "units": {"IC50": "nM"}, "values": [{"smiles": "NS(=O)(=O)CCNC(=O)c1ccc2c(-c3ccccc3Cl)nn(-c3ccc(F)cc3)c2c1", "note": "[Example 20, 3-(2-chlorophenyl)-1-(4-fluorophenyl)-N-(2-sulfamoylethyl)-1H-indazole-6-carboxamide]", "IC50": 148}, {"smiles": "CC1(NC(=O)c2ccc3c(-c4cccc(C#N)c4)nn(-c4ccc(F)cc4)c3c2)CCS(=O)(=O)C1", "note": "(stereo not drawn) [Example 117, 3-(3-cyanophenyl)-1-(4-fluorophenyl)-N-(3-methyl-1,1-dioxidotetrahydrothiophen-3-yl)-1H-indazole-6-carboxamide]", "IC50": 7}, {"smiles": "O=C(NC1CCS(=O)(=O)C1)c1ccc2c(-c3c(F)cccc3F)nn(-c3ccc(F)cc3)c2c1", "note": "(single isomer, unassigned) [Example 132-A, 3-(2,6-difluorophenyl)-N-(1,1-dioxidotetrahydro-thiophen-3-yl)-1-(4-fluorophenyl)-1H-indazole-6-carboxamide]", "IC50": 25}, {"smiles": "C[C@@H](NC(=O)c1ccc2c(-c3ccccc3Cl)nn(-c3ccc(F)cc3)c2c1)c1cnc(C(F)(F)F)nc1", "note": "[Example 4, 3-(2-chlorophenyl)-1-(4-fluorophenyl)-N-{(1R)-1-[2-(trifluoromethyl)pyrimidin-5-yl]ethyl}-1H-indazole-6-carboxamide]", "IC50": 67}, {"smiles": "O=C1CC(NC(=O)c2ccc3c(-c4ccccc4Cl)nn(-c4ccc(F)cc4)c3c2)C1", "note": "[Example 104, 3-(2-chlorophenyl)-1-(4-fluorophenyl)-N-(3-oxocyclobutyl)-1H-indazole-6-carboxamide]", "IC50": 180}, {"smiles": "CN1CC(NC(=O)c2ccc3c(-c4ccccc4Cl)nn(-c4ccc(F)cc4)c3c2)CC1=O", "note": "(racemic) [Example 22, 3-(2-chlorophenyl)-1-(4-fluorophenyl)-N-(1-methyl-5-oxopyrrolidin-3-yl)-1H-indazole-6-carboxamide]", "IC50": 102}, {"smiles": "CC(C)[C@@H](CO)NC(=O)c1ccc2c(-c3cccc(C4CC4)c3)nn(-c3ccc(F)cn3)c2c1", "note": "[Example 124, 3-(3-cyclopropylphenyl)-1-(5-fluoropyridin-2-yl)-N-[(1S)-1-(hydroxymethyl)-2-methylpropyl]-1H-indazole-6-carboxamide]", "IC50": 4.4}, {"smiles": "CC1(NC(=O)c2ccc3c(-c4cncc(C#N)c4)nn(-c4ccc(F)cc4)c3c2)CCS(=O)(=O)C1", "note": "(single isomer, unassigned) [Example 146-A, 3-(5-cyanopyridin-3-yl)-1-(4-fluorophenyl)-N-(3-methyl-1,1-dioxidotetrahydrothiophen-3-yl)-1H-indazole-6-carboxamide]", "IC50": 63}, {"smiles": "O=C(NC1(CO)CCCC1)c1ccc2c(-c3ccccc3Cl)nn(-c3ccc(F)cc3)c2c1", "note": "[Example 43, 3-(2-chlorophenyl)-1-(4-fluorophenyl)-N-[1-(hydroxymethyl)cyclopentyl]-1H-indazole-6-carboxamide]", "IC50": 11}, {"smiles": "N#CC1(NC(=O)c2ccc3c(-c4ccccc4Cl)nn(-c4ccc(F)cc4)c3c2)CC1", "note": "[Example 105, 3-(2-chlorophenyl)-N-(1-cyanocyclopropyl)-1-(4-fluorophenyl)-1H-indazole-6-carboxamide]", "IC50": 139}, {"smiles": "CN1CCC(NC(=O)c2ccc3c(-c4ccccc4Cl)nn(-c4ccc(F)cc4)c3c2)C1=O", "note": "(racemic) [Example 6, 3-(2-chlorophenyl)-1-(4-fluorophenyl)-N-(1-methyl-2-oxopyrrolidin-3-yl)-1H-indazole-6-carboxamide]", "IC50": 686}, {"smiles": "NC(=O)c1ccc(Cl)c(-c2nn(-c3ccc(F)cc3)c3cc(C(=O)NC4CCS(=O)(=O)C4)ccc23)c1", "note": "(single isomer, unassigned) [Example 122-A, 3-(5-carbamoyl-2-chlorophenyl)-N-(1,1-dioxidotetrahydrothiophen-3-yl)-1-(4-fluorophenyl)-1H-indazole-6-carboxamide]", "IC50": 96}, {"smiles": "CSCC[C@@H](CO)NC(=O)c1ccc2c(-c3ccccc3Cl)nn(-c3ccc(F)cc3)c2c1", "note": "[Example 93, 3-(2-chlorophenyl)-1-(4-fluorophenyl)-N-[(1S)-1-(hydroxymethyl)-3-(methylsulfanyl)propyl]-1H-indazole-6-carboxamide]", "IC50": 503}, {"smiles": "CC1(NC(=O)c2ccc3c(-c4cccc(C#N)c4)nn(-c4ccc(F)cn4)c3c2)CCS(=O)(=O)C1", "note": "(single isomer, unassigned) [Example 178-B, 3-(3-cyanophenyl)-1-(5-fluoropyridin-2-yl)-N-(3-methyl-1,1-dioxidotetrahydrothiophen-3-yl)-1H-indazole-6-carboxamide]", "IC50": 32}, {"smiles": "CC1(NC(=O)c2ccc3c(-c4ccccc4Cl)nn(-c4nnc(C5CC5)s4)c3c2)CCS(=O)(=O)C1", "note": "(racemic) [Example 190, 3-(2-chlorophenyl)-1-(5-cyclopropyl-1,3,4-thiadiazol-2-yl)-N-(3-methyl-1,1-dioxidotetrahydrothiophen-3-yl)-1H-indazole-6-carboxamide]", "IC50": 45}, {"smiles": "O=C(NC(CO)C1CC1)c1ccc2c(-c3ccccc3Cl)nn(-c3ccc(F)cc3)c2c1", "note": "(racemic) [Example 78, 3-(2-chlorophenyl)-N-(1-cyclopropyl-2-hydroxyethyl)-1 (4-fluorophenyl)-1H-indazole-6-carboxamide]", "IC50": 353}, {"smiles": "CC1(NC(=O)c2ccc3c(-c4ccccc4Cl)nn(-c4ccc(F)cc4)c3c2)CCS(=O)(=O)C1", "note": "(single isomer, unassigned) [Example 1-A, 3-(2-Chlorophenyl)-1-(4-fluorophenyl)-N-(3-methyl-1,1-dioxidotetrahydrothiophen-3-yl)-1H-indazole-6-carboxamide]", "IC50": 4.5}, {"smiles": "O=C(NC1CCS(=O)(=O)C1)c1ccc2c(-c3ccccc3Cl)nn(-c3ccc(Cl)cn3)c2c1", "note": "(single isomer, unassigned) [Example 173-A, 3-(2-chlorophenyl)-1-(5-chloropyridin-2-yl)-N-(1,1-dioxidotetrahydrothiophen-3-yl)-1H-indazole-6-carboxamide]", "IC50": 23}]}]}
